For one assay, the target named is T1, hRR (hRR1 + hRR2) (Homo sapiens, UniProt P23921).
T1 sequence (P23921 1-792): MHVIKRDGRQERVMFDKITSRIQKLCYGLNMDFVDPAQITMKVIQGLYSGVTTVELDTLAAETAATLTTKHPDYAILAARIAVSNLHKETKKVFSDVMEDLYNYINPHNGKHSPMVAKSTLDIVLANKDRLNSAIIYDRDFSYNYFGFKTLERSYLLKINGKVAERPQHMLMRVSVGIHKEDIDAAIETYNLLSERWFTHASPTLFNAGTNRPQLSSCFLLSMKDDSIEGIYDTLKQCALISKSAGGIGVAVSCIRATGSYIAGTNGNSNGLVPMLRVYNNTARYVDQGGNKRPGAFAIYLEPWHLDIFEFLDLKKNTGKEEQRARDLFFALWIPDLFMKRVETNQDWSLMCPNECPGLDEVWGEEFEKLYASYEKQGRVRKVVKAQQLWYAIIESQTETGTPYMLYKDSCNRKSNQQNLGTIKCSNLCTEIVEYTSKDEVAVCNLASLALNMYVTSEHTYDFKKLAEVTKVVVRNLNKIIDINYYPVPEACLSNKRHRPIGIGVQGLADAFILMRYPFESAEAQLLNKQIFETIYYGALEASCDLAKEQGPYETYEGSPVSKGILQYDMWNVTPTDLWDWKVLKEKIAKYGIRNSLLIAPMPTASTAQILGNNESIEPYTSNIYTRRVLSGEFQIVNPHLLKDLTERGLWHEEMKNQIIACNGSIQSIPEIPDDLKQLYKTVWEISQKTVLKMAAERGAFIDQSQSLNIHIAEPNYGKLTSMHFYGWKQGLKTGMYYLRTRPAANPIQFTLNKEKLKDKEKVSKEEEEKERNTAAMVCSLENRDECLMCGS
T1 sequence (P31350 1-389 partner): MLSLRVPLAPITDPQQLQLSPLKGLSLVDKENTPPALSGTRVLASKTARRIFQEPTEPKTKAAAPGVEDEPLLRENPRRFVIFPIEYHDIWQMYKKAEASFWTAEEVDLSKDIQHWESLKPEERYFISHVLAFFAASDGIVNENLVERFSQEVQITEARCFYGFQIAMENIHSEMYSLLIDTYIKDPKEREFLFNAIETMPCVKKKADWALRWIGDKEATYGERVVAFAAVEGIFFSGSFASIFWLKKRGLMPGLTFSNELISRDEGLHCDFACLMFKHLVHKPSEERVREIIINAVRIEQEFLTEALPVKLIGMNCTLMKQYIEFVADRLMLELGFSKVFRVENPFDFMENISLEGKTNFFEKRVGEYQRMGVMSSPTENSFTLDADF
The class given is biochemical.

Another assay concerns the target T2, ScRR1 (Saccharomyces cerevisiae, UniProt P21524).
T2 sequence (P21524 1-888): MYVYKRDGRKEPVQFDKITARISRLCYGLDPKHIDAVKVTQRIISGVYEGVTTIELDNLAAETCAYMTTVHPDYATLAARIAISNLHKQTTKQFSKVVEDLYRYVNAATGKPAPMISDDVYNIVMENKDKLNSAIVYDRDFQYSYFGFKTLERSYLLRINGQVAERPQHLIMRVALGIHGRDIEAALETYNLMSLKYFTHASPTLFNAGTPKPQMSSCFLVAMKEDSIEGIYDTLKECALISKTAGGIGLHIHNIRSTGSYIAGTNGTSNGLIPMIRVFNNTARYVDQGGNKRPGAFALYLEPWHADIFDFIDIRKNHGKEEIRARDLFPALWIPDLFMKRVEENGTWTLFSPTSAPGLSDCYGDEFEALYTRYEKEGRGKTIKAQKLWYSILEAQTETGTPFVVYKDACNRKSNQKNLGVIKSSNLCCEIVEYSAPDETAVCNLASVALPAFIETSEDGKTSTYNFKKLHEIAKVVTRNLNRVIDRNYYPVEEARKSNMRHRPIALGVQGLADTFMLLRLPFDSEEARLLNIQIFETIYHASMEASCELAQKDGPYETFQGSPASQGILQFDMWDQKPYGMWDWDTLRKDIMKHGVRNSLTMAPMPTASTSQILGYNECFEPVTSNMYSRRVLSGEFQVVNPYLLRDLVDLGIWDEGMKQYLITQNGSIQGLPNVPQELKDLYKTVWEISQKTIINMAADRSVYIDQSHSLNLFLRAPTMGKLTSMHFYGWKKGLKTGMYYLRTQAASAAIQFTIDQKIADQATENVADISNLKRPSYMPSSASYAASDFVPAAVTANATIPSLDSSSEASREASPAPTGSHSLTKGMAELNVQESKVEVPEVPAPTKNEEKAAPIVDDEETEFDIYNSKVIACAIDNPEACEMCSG
The experiment in a line: X-ray crystal structure, […] Å, crystal soaking. Type of assay: binding. The following applies: allosteric S-site; Mg2+ bound at alpha- and gamma-phosphates.

The text below walks through data of paper PMC3569060 (Molecular cancer therapeutics, 2012).

For the compound `O=[N+]([O-])c1ccc2c(ccn2[C@H]2C[C@H](O)[C@@H](COP(=O)(O)OP(=O)(O)OP(=O)(O)O)O2)c1` [5-NITP], the IC50 (usually the concentration at which inhibition is half-maximal) at hRR (hRR1 + hRR2) is 170 ± 5 µM. In addition, the “X-ray crystal structure, 2.3 Å, crystal soaking” value on ScRR1 is reported as “clearly shows electron density for 5-NITP bound at the S-site”.
